Assay results taken from ChEMBL document CHEMBL1201862, “PubChem BioAssay data set” (2004).
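48-hour exposure; five concentrations; linearly interpolated endpoints. GI50 marks 50% less growth.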 The source made the active and inactive calls. Rule as the data show it: active = GI50 up to about 1.1 µM and inactive = higher.

What was measured:
Assay in all cases: inhibition of tumour cell growth, NCI panel, 48 h
UO-31 = test system: UO-31
SK-MEL-5 = test system: SK-MEL-5
NCI-H23 = test system: NCI-H23
PC-3 = test system: PC-3
MOLT-4 = test system: MOLT-4
HOP-62 = test system: HOP-62
RXF 393 = test system: RXF 393
EKVX = test system: EKVX
LOX IMVI = test system: LOX IMVI
MCF7 = test system: MCF7
MDA-N = test system: MDA-N
IGROV-1 = test system: IGROV-1
HCT-15 = test system: HCT-15
RPMI-8226 = test system: RPMI-8226
SNB-19 = test system: SNB-19
SR = test system: SR
SNB-75 = test system: SNB-75
SF-268 = test system: SF-268
HCC 2998 = test system: HCC 2998
CCRF-CEM = test system: CCRF-CEM

Structure (SMILES)	GI50 (UO-31)	GI50 (SK-MEL-5)	GI50 (NCI-H23)	GI50 (PC-3)	GI50 (MOLT-4)	GI50 (HOP-62)	GI50 (RXF 393)	GI50 (EKVX)	GI50 (LOX IMVI)	GI50 (MCF7)	GI50 (MDA-N)	GI50 (IGROV-1)	GI50 (HCT-15)	GI50 (RPMI-8226)	GI50 (SNB-19)	GI50 (SR)	GI50 (SNB-75)	GI50 (SF-268)	GI50 (HCC 2998)	GI50 (CCRF-CEM)
Cc1ccc(S(=O)(=O)Nc2ccccc2C=O)cc1	10.7 µM (inactive)	11.9 µM (inactive)	14.7 µM (inactive)	11.4 µM (inactive)	11.9 µM (inactive)	21.5 µM (inactive)	25.6 µM (inactive)	25 µM (inactive)	13.8 µM (inactive)	12.4 µM (inactive)	15.7 µM (inactive)	17.4 µM (inactive)	7.4 µM	5.62 µM (inactive)	21.5 µM (inactive)	18.2 µM (inactive)	18.3 µM (inactive)			
N[C@H]1CCN(c2c(F)cc3c(=O)c(C(=O)O)cn4c3c2Oc2c-4ccc3c2ccc2ccccc23)C1	1.64 µM (inactive)	0.776 µM (active)	1.22 µM (inactive)	0.935 µM (active)	0.0643 µM (active)	1.07 µM (active)	0.255 µM (active)	0.377 µM (active)	0.56 µM (active)	0.817 µM (active)	0.767 µM (active)	0.284 µM (active)	0.364 µM	0.226 µM (active)	1.33 µM (inactive)	0.0532 µM (active)		0.288 µM (active)		
CC1C(c2ccc3c(c2)OCO3)c2cc3c(cc2OC1N1CCCCC1)OCO3 (centres undefined)	77.1 µM (inactive)	54.6 µM (inactive)	60.8 µM (inactive)	37.5 µM (inactive)	36.7 µM (inactive)	> 100 µM (inactive)		66.2 µM (inactive)	82.2 µM (inactive)	65.9 µM (inactive)	20.8 µM (inactive)	56.6 µM (inactive)	50.4 µM	47.9 µM (inactive)	48.9 µM (inactive)	37.8 µM (inactive)		> 100 µM (inactive)	20 µM (inactive)	35.2 µM (inactive)
COc1ccc(N(CN2C(=O)CCC2OC)C(C)=O)cc1 (centres undefined)	> 100 µM (inactive)	> 100 µM (inactive)	> 100 µM (inactive)	> 100 µM (inactive)	> 100 µM (inactive)	> 100 µM (inactive)	> 100 µM (inactive)	> 100 µM (inactive)	> 100 µM (inactive)	> 100 µM (inactive)	> 100 µM (inactive)	> 100 µM (inactive)	> 100 µM	> 100 µM (inactive)	> 100 µM (inactive)	> 100 µM (inactive)	> 100 µM (inactive)	> 100 µM (inactive)		> 100 µM (inactive)
CSCCCN(CCCSC)CCCSC	> 100 µM (inactive)	> 100 µM (inactive)	> 100 µM (inactive)	> 100 µM (inactive)	24.2 µM (inactive)	> 100 µM (inactive)		> 100 µM (inactive)	> 100 µM (inactive)	> 100 µM (inactive)	> 100 µM (inactive)	> 100 µM (inactive)	> 100 µM		> 100 µM (inactive)	10.6 µM (inactive)	48.5 µM (inactive)	> 100 µM (inactive)	> 100 µM (inactive)	35.5 µM (inactive)
O=C1Nc2ccccc2S/C1=C\c1ccccc1C(F)(F)F	> 100 µM (inactive)	> 100 µM (inactive)		> 100 µM (inactive)	> 100 µM (inactive)	> 100 µM (inactive)	> 100 µM (inactive)	> 100 µM (inactive)	> 100 µM (inactive)	98.6 µM (inactive)	> 100 µM (inactive)	29 µM (inactive)	> 100 µM	64.1 µM (inactive)	> 100 µM (inactive)	> 100 µM (inactive)	34.4 µM (inactive)	> 100 µM (inactive)		2.24 µM (inactive)
N#Cc1ccc(CSC2=C(c3ccc(Cl)cc3)S/C(=C3\SC(SCc4ccc(C#N)cc4)=C(c4ccc(Cl)cc4)S3)S2)cc1		> 100 µM (inactive)	> 100 µM (inactive)	> 100 µM (inactive)	> 100 µM (inactive)	> 100 µM (inactive)	> 100 µM (inactive)	> 100 µM (inactive)	> 100 µM (inactive)	> 100 µM (inactive)	> 100 µM (inactive)	> 100 µM (inactive)	> 100 µM	> 100 µM (inactive)	> 100 µM (inactive)	> 100 µM (inactive)		> 100 µM (inactive)	> 100 µM (inactive)	> 100 µM (inactive)
CC[C@H](NC1=C(Cl)C(=O)c2c(O)ccc(O)c2C1=O)C(=O)OC		6.53 µM (inactive)	> 10 µM (inactive)	6.9 µM (inactive)	2.6 µM (inactive)	> 10 µM (inactive)		> 10 µM (inactive)	3.64 µM (inactive)	3.94 µM (inactive)	6.55 µM (inactive)	> 10 µM (inactive)	5.33 µM	> 10 µM (inactive)	> 10 µM (inactive)	1.64 µM (inactive)	> 10 µM (inactive)	4.13 µM (inactive)		3.5 µM (inactive)
O=C(c1cc2ccccc2[nH]1)N1C2CCC1CN(CCOC(c1ccc(F)cc1)c1ccc(F)cc1)CC2 (centres undefined)	3.22 µM (inactive)	5.77 µM (inactive)	40.1 µM (inactive)	2.79 µM (inactive)	4.91 µM (inactive)	> 100 µM (inactive)	3.97 µM (inactive)	8.55 µM (inactive)	9.48 µM (inactive)	7.06 µM (inactive)	> 100 µM (inactive)	2.26 µM (inactive)	3.24 µM	9.2 µM (inactive)	> 100 µM (inactive)		> 100 µM (inactive)	8.28 µM (inactive)	> 100 µM (inactive)	6.01 µM (inactive)
O=c1c(-c2ccccc2)c(SCCO)n(-c2ccccc2)c(=S)n1-c1ccccc1	> 100 µM (inactive)	> 100 µM (inactive)	> 100 µM (inactive)	> 100 µM (inactive)	> 100 µM (inactive)	> 100 µM (inactive)		> 100 µM (inactive)	> 100 µM (inactive)	> 100 µM (inactive)	> 100 µM (inactive)	> 100 µM (inactive)	> 100 µM	> 100 µM (inactive)	> 100 µM (inactive)	> 100 µM (inactive)	39.6 µM (inactive)	> 100 µM (inactive)		> 100 µM (inactive)
CCCCCCCCCCCCOC1C(COCCN2CCCC2)OC2OC(C)(C)OC21 (centres undefined)	1.6 µM (inactive)	1.6 µM (inactive)	1.72 µM (inactive)	1.65 µM (inactive)	1.92 µM (inactive)	1.8 µM (inactive)	1.57 µM (inactive)	3.18 µM (inactive)	1.4 µM (inactive)	1.71 µM (inactive)	1.41 µM (inactive)	1.72 µM (inactive)	1.76 µM	2.52 µM (inactive)	2.94 µM (inactive)	1.14 µM (inactive)	1.83 µM (inactive)	2 µM (inactive)		1.86 µM (inactive)
N#CC(C#N)/N=N/c1ccc(-c2nc3ccccc3o2)cc1	13 µM (inactive)	2.05 µM (inactive)	10.1 µM (inactive)	8 µM (inactive)	7.82 µM (inactive)	16.6 µM (inactive)		11.7 µM (inactive)	13.1 µM (inactive)	11.1 µM (inactive)	17.2 µM (inactive)	19.4 µM (inactive)	14.8 µM		24.7 µM (inactive)	16.2 µM (inactive)	24.4 µM (inactive)	27.5 µM (inactive)	1.22 µM (inactive)	
C/C(=N/NC(=S)Nc1ccc(C)cc1)c1ccccn1	0.266 µM (active)	0.12 µM (active)	< 0.0185 µM (active)	< 0.0153 µM (active)	< 0.0122 µM (active)	0.029 µM (active)	0.78 µM (active)	0.0601 µM (active)	0.0162 µM (active)	0.0146 µM (active)	1.1 µM (active)	< 0.0155 µM (active)	0.0221 µM	< 0.0156 µM (active)	2.29 µM (inactive)		1.26 µM (inactive)	0.114 µM (active)	3.48 µM (inactive)	< 0.0124 µM (active)
CC(C)C1CC(CO)(CNc2nc(N)nc(Cl)c2C=O)C1 (centres undefined)	6.27 µM (inactive)	6.89 µM (inactive)	2.22 µM (inactive)	2.1 µM (inactive)	2.15 µM (inactive)	18.8 µM (inactive)	7.93 µM (inactive)	4.51 µM (inactive)	2.04 µM (inactive)	10.3 µM (inactive)	2.85 µM (inactive)	1.89 µM (inactive)	4.43 µM	11 µM (inactive)	6.04 µM (inactive)		7.87 µM (inactive)	4.79 µM (inactive)	1.97 µM (inactive)	2.34 µM (inactive)
S=c1oc(CCCCCCCCc2nn(CNc3ccc(Cl)cc3)c(=S)o2)nn1CNc1ccc(Cl)cc1	97.3 µM (inactive)	3.27 µM (inactive)	99.3 µM (inactive)	29.3 µM (inactive)	> 100 µM (inactive)	7.52 µM (inactive)	> 100 µM (inactive)	> 100 µM (inactive)		> 100 µM (inactive)	43.4 µM (inactive)	> 100 µM (inactive)	> 100 µM	6.78 µM (inactive)	> 100 µM (inactive)		> 100 µM (inactive)	> 100 µM (inactive)	> 100 µM (inactive)	
O=C(O)CCCCC1CCSS1 (stereo not drawn) [LIPOIC ACID, ALPHA]	> 100 µM (inactive)	> 100 µM (inactive)	> 100 µM (inactive)	> 100 µM (inactive)	> 100 µM (inactive)	> 100 µM (inactive)		> 100 µM (inactive)	> 100 µM (inactive)	> 100 µM (inactive)	> 100 µM (inactive)	> 100 µM (inactive)	> 100 µM	> 100 µM (inactive)	> 100 µM (inactive)	> 100 µM (inactive)	93.8 µM (inactive)	> 100 µM (inactive)	72.6 µM (inactive)	> 100 µM (inactive)
